# Assay results as given in patent US12691109B2, “Bifunctional aggregation-induced emission luminogen for monitoring and killing of multidrug-resistant bacteria” (The Hong Kong University of Science and Technology, priority 2018, dated 2026).
# Entries after “also recorded” stand apart in the source; their conditions may differ.
# Experiments:
# [1] = tested on: human skin fibroblast cells (HAFs); assay: Cytotoxicity, CCK-8 kit; assay type: cell-based
# Experimental: (§1) FIGS. 18A-B are graphs depicting cell viability of human amniotic fluid stem cells (HAFs) and human umbilical vein endothelial cells (HUVECs) after incubation with TriPE-NT at different concentrations of 0, 2, 5, 10 and 20 μM under dark conditions and upon white-light illumination (4 mW cm^−2) for 2 and 30 min.
# (§2) Cytotoxicity of the TriPE-NT was tested because a good antibacterial drug should have the ability to kill only bacteria and have no toxicity to human or animal cells. The biocompatibility of TriPE-NT was evaluated by CCK-8 kit.
# [2] = tested on: human umbilical vein endothelial cells (HUVECs); assay: Cytotoxicity, CCK-8 kit; assay type: cell-based
# Experimental: as §1, §2
# E. coli [3] = assay: Light-enhanced bacteria killing, plate counting method; assay type: cell-based
# Experimental: (§3) FIGS. 15C-F are graphs depicting bacteria survival rates for bacteria that were incubated with TriPE-NT (10 μM) for 10 min, the bacteria suspensions (50 μL) were plated on agar plates and treated by white-light illumination (4 mW cm^−2) for 0, 2 and 30 min respectively. FIG. 15C is a graph plotting survival rate versus time of E. coli and MDR E. coli. FIG. 15D is a graph plotting survival rate versus time of K. pneumoniae and MDR K. pneumoniae. FIG. 15E is a graph plotting survival rate versus time of S. epidermidis and MDR S. epidermidis. FIG. 15F is a graph plotting survival rate versus time of S. aureus and MDR S. aureus.
# (§4) FIGS. 16A-B are graphs depicting bacteria survival rates for bacteria that were incubated with TriPE-NT (0, 5, 10 μM) for 0 (S-0) and 10 (S-10) min, the bacteria suspensions (50 μL) were plated on agar plates and treated by white-light illumination (4 mW cm^−2) for 2 (I-2), 10 (I-10) and 30 (I-30) min respectively. FIG. 16A is a graph plotting the survival rate versus time of E. coli. FIG. 16B is a graph plotting the survival rate versus time of S. epidermidis.
# (§5) The bacteria killing effect of TriPE-NT was evaluated on both wild and clinically isolated MDR bacteria by a traditional plate counting method. First, E. coli and S. epidermidis, as the representative of Gram-negative (G−) and Gram-positive (G+) bacteria, were used to determine the effective bactericidal concentration and illumination time. The bacteria were incubated with TriPE-NT (0, 5, 10 μM) for 0 and 10 min, the bacteria suspensions (50 μL) were plated on agar plates and treated by white-light illumination (4 mW cm^−2) for 2, 10 and 30 min respectively (FIGS. 16A-B). […] Thus, 10 μM TriPE-NT and light irradiation for 2 min or 30 min were set as experimental conditions in the following experiments.
# S. epidermidis [4] = assay: as above; assay type: cell-based; settings: 5 μM, light irradiation of 2 min
# Experimental: as §3, §4, §5
# E. coli [5] = assay: Morphological changes of bacteria by FE-SEM and FEHR-TEM; assay type: cell-based
# Text: (§6) FIGS. 24A-E show images of TriPE-NT-induced morphological changes of E. coli, MDR E. coli, S. epidermidis and MDR S. epidermidis with white light irradiation by FE-SEM and FEHR-TEM, bacteria without treatment were set as controls. […] FIG. 24D is a graph plotting elemental curve measured on the super-thin slices of TriPE-NT-treated E. coli from the region marked by the rectangle in FIG. 24C. FIG. 24 E is a graph plotting the elemental curve measured on the super-thin slices of TriPE-NT-treated S. epidermidis from the region marked by rectangle in FIG. 24C.
# (§7) To gain more insights into the TriPE-NT-bacteria interactions, FE-SEM and field-emission high resolution transmission electron microscope (FEHR-TEM) were used to visualize the morphological changes of the bacteria under TriPE-NT treatment, selecting E. coli (G−), MDR E. coli (G−), and S. epidermidis (G+), MDR S. epidermidis (G+) as representatives.
# S. epidermidis [6] = assay: as above; assay type: cell-based; settings: TriPE-NT without or with light irradiation (4 mW cm^−2, 30 min)
# Text: as §6, §7
# MDR E. coli = assay: as above; assay type: cell-based
# Text: as §6, §7
# [7] = tested on: MDR E. coli-infected wounds; assay: Bacteria-infected full-thickness skin wound model on rats; assay type: in vivo, Wistar rats
# Text: (§8) FIGS. 26A-D show In vivo evaluation of TriPE-NT in treatment of bacteria-infected wounds on rats. FIG. 26A illustrates the process of establishing bacteria-infected full-thickness skin wound models on rats. […] FIG. 26C is a graph plotting the proportion of the E. coli and MDR E. coli infected wound area on day 3 and day 7 after the injury. FIG. 26D is a graph plotting the proportion of the S. epidermidis and MDR S. epidermidis infected wound area on day 3 and day 7 after the injury (each experiment was repeated at least 5 times).
# (§9) To further evaluate the anti-bacterial activity of TriPE-NT in vivo, the performance of TriPE-NT on bacteria-infected wounds of rats was tested. E. coli-, MDR E. coli-, S. epidermidis or MDR S. epidermidis-infected, full-thickness skin wounds were established on the dorsal skin of the Wistar rats (FIG. 26A). The macroscopic appearance of the healing processes of the wounds was captured at different time points (FIG. 26B).
# (§10) Hematoxylin and eosin (HE) staining was carried out for evaluating the wound healing of the sectioned tissues of the E. coli-, MDR E. coli-, S. epidermidis- and MDR S. epidermidis-infected wounds on the Wistar rats on day 3 and day 7 post-injury (FIG. 28). […] Fibroblasts can secret collagens which accelerate wound reconstruction, that means the TriPE-NT plus light irradiation can promote the wound healing.
# [8] = tested on: S. epidermidis-infected wounds; assay: as above; assay type: in vivo, Wistar rats
# Text: as §8, §9, §10
# E. coli-infected wounds = assay: as above; assay type: in vivo, Wistar rats
# Text: as §8, §9, §10
# [9] = tested on: MDR S. epidermidis-infected wounds; assay: as above; assay type: in vivo, Wistar rats
# Text: as §8, §9, §10
# [10] = 2, 5, 10 and 20 RM, absence of white light irradiation
# [11] = white light 4 mW cm^−2, 2 and 30 min
# [12] = TriPE-NT in the absence of white light
# [13] = TriPE-NT with light irradiation
# [14] = day 3 post-injury, TriPE-NT plus light vs control
# [15] = day 3 post-injury, TriPE-NT plus light vs untreated
# [16] = day 7 post-injury, TriPE-NT plus light (4 mW cm^−2, 30 min) vs control
# [17] = day 7 post-injury, TriPE-NT plus light vs control
structure (smiles),measurement,setting,value
COc1ccc(C(=Cc2ccc(-c3ccc4c5c(cccc35)C(=O)N(CCCCn3c[n+](Cc5ccc(F)cc5F)cn3)C4=O)cc2)c2ccc(OC)cc2)cc1 [TriPE-NT],cell viability of HAFs,[1]; [10],not significantly changed
same,cytotoxicity to HAFs with increase of irradiation time,[1]; [11],no obvious cytotoxicity
same,cell viability of HUVECs,[2]; [10],not significantly changed
same,cytotoxicity to HUVECs with increase of irradiation time,[2]; [11],no obvious cytotoxicity
same,E. coli killed,"E. coli [3]; 10 μM, white light 4 mW cm^−2, 30 min",killed all and all
same,survival rate of E. coli,"E. coli [3]; in darkness, 10 μM TriPE-NT",approximately 6.8±0.6%
same,S. epidermidis killed,S. epidermidis [4],all S. epidermidis were killed
same,morphology of E. coli,E. coli [5]; [12],obvious rough surface and damaged cell wall
same,morphology of E. coli,E. coli [5]; [13],cell wall fragmentations
same,morphology of S. epidermidis,S. epidermidis [6],wrinkled bacterial cell wall
same,morphology of MDR E. coli,MDR E. coli; [12],obvious rough surface and damaged cell wall
same,morphology of MDR E. coli,MDR E. coli; [13],cell wall fragmentations
same,"wound size, MDR E. coli-infected wounds",[7]; [14],no apparent difference
same,"HE staining of wound tissue, invaded lymphocytes, MDR E. coli-infected wounds",[7]; [15],reduced the inflammatory reactions
same,"wound size, MDR E. coli-infected wounds",[7]; [16],significantly smaller
same,"wound size, S. epidermidis-infected wounds",[8]; [14],no apparent difference
same,"HE staining of wound tissue, invaded lymphocytes, S. epidermidis-infected wounds",[8]; [15],reduced the inflammatory reactions
same,"wound size, S. epidermidis-infected wounds",[8]; [16],more apparent reduction of wound size
same,"HE staining of wound tissue, S. epidermidis-infected wounds",[8]; [17],appearance of fibroblasts and newly formed squamous epithelial layers; also recorded: appearance of hair follicles
same,"wound size, E. coli-infected wounds",E. coli-infected wounds; [14],no apparent difference
same,"HE staining of wound tissue, invaded lymphocytes, E. coli-infected wounds",E. coli-infected wounds; [15],reduced the inflammatory reactions
same,"wound size, E. coli-infected wounds",E. coli-infected wounds; [16],more apparent reduction of wound size
same,"wound size, MDR S. epidermidis-infected wounds",[9]; [14],no apparent difference
same,"HE staining of wound tissue, invaded lymphocytes, MDR S. epidermidis-infected wounds",[9]; [15],reduced the inflammatory reactions
same,"wound size, MDR S. epidermidis-infected wounds",[9]; [16],significantly smaller sizes
same,"HE staining of wound tissue, MDR S. epidermidis-infected wounds",[9]; [17],appearance of fibroblasts and newly formed squamous epithelial layers
